Drawing on PubChem BioAssay AID248 (DTP/NCI, 2004), this text covers T/C for 28 compounds.

The experiment has as its system L1210 leukemia ip in BDF1 mice, survival T/C. Kind of experiment: NCI In Vivo Anticancer Drug Screen. Data for tumor model L1210 Leukemia (intraperitoneal) in B6D2F1 (BDF1) mice. To be noted: endpoint: mean survival time, higher = longer survival. The method in brief: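 Survival endpoint. Drug-treated group vs vehicle group, expressed as T divided by C. Tumor passaged by transplantation.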

[1] abbreviates: dose: 100.0 mg/kg/injection, schedule: Q01DX001 (ip), vehicle: saline with Tween-80.
[2] abbreviates: dose: 100.0 mg/kg/injection, schedule: Q01DX009 (ip), vehicle: saline with Tween-80.
Setting [3] is: dose: 100.0 mg/kg/injection, schedule: Q04DX003 (ip), vehicle: saline with Tween-80.
The mark [4] stands for this setting: dose: 200.0 mg/kg/injection, schedule: Q01DX001 (ip), vehicle: saline with Tween-80.
Where [5] appears, read: dose: 200.0 mg/kg/injection, schedule: Q01DX009 (ip), vehicle: saline with Tween-80.
Setting [6] is: dose: 200.0 mg/kg/injection, schedule: Q04DX003 (ip), vehicle: saline with Tween-80.
Where [7] appears, read: dose: 400.0 mg/kg/injection, schedule: Q01DX001 (ip), vehicle: saline with Tween-80.
Where [8] appears, read: dose: 400.0 mg/kg/injection, schedule: Q01DX009 (ip), vehicle: saline with Tween-80.
Setting [9] is: dose: 400.0 mg/kg/injection, schedule: Q04DX003 (ip), vehicle: saline with Tween-80.
The mark [10] stands for this setting: dose: 100.0 mg/kg/injection, schedule: Q04DX003 (ip), vehicle: Klucel (hydroxypropylcellulose) (HPC).
The mark [11] stands for this setting: dose: 400.0 mg/kg/injection, schedule: Q04DX003 (ip), vehicle: Klucel (hydroxypropylcellulose) (HPC).
[12] abbreviates: dose: 100.0 mg/kg/injection, schedule: Q01DX009 (ip), vehicle: Klucel (hydroxypropylcellulose) (HPC).
Setting [13] is: dose: 200.0 mg/kg/injection, schedule: Q01DX009 (ip), vehicle: Klucel (hydroxypropylcellulose) (HPC).
Setting [14] is: dose: 200.0 mg/kg/injection, schedule: Q04DX003 (ip), vehicle: Klucel (hydroxypropylcellulose) (HPC).
Where [15] appears, read: dose: 400.0 mg/kg/injection, schedule: Q01DX009 (ip), vehicle: Klucel (hydroxypropylcellulose) (HPC).
Setting [16] is: dose: 100.0 mg/kg/injection, schedule: Q01DX001 (ip), vehicle: carboxymethylcellulose (CMC).
Where [17] appears, read: dose: 200.0 mg/kg/injection, schedule: Q01DX001 (ip), vehicle: carboxymethylcellulose (CMC).
Setting [18] is: dose: 400.0 mg/kg/injection, schedule: Q01DX001 (ip), vehicle: carboxymethylcellulose (CMC).

“And” between values parts separate entries of the source, which are not always exact repeats. Equal values may be shown once. Inconclusive results and toxic doses are left out.

In the case of `CC(C(O)c1ccccc1)N(C)/N=N/c1nc[nH]c1C(N)=O` (stereo unspecified), the T/C reads like this: under setting [1], 92 % of control; under setting [2], 98 % of control; under setting [3], 98 % of control; under setting [4], 90 % of control; under setting [5], 103 % of control; under setting [6], 102 % of control. Also, the T/C is, setting by setting: under setting [7], 92 % of control; under setting [8], 107 % of control; under setting [9], 102 % of control.

Regarding `N#C/C(=C/c1ccncc1)C(N)=O`, the T/C by setting is: under setting [3], 98 % of control; under setting [6], 94 % of control; under setting [9], 99 % of control.

For `O=C1OC(c2ccccc2)(c2ccccc2)Cc2ccccc21`, the T/C reads like this: under setting [2], 97 % of control; under setting [10], 93 % of control; under setting [5], 106 % of control; under setting [8], 95 % of control; under setting [11], 86 % of control.

Take `O=[N+]([O-])c1ccc(Oc2cccc(C(F)(F)F)c2)nc1`: the T/C reads like this: under setting [12], 101 % of control; under setting [10], 101 % of control; under setting [13], 103 % of control; under setting [14], 95 % of control; under setting [15], 107 % of control; under setting [11], 101 % of control.

`Br/C1=C/CCCCCC1`: the T/C reads like this: (dose: 75.0 mg/kg/injection, schedule: Q04DX003 (ip), vehicle: saline) 102 % of control; (dose: 150.0 mg/kg/injection, schedule: Q04DX003 (ip), vehicle: saline) 96 % of control.

Consider `COCC(=O)C(C(C)=O)C(c1ccc(N(C)C)cc1)C(C(C)=O)C(=O)COC` (stereo unspecified), for which the T/C is 98 % of control under setting [3], 89 % of control under setting [6] and 91 % of control under setting [9].

As to `NC(=O)c1nnc(-c2ccccn2)[nH]c1=O`, the T/C (dose: 100.0 mg/kg/injection, schedule: Q01DX001 (ip), vehicle: Klucel (hydroxypropylcellulose) (HPC)) is 93 % of control.

As to `CCCCCCCCCCCCCCCCCCO`, the T/C by setting is: under setting [2], 99 % of control; under setting [5], 92 % of control; under setting [8], 87 % of control.

On to `CCOC(=O)CC(=O)c1cccc(S(=O)(=O)F)c1`, for which the T/C is 98 % of control under setting [2]; 104 % of control under setting [3]; 103 % of control under setting [5]; 98 % of control under setting [6]; 92 % of control under setting [8]; 102 % of control under setting [9].

Regarding `CC(C)c1ccc(N2P(=O)(N(C)C)N(c3ccc(C(C)C)cc3)P2(=O)N(C)C)cc1` (stereo unspecified), the T/C under setting [12] was 95 % of control, the T/C under setting [13] was 92 % of control and the T/C under setting [15] is 98 % of control.

Regarding `COc1cccc(C(=O)O)c1OS(=O)(=O)c1ccccc1`, the T/C is 98 % of control under setting [12]; 91 % of control under setting [10]; 95 % of control under setting [13]; 93 % of control under setting [15]; 94 % of control under setting [11].

As to `COc1ccccc1NC(=O)Nc1ccccc1C`, the T/C is, setting by setting: under setting [12], 96 % of control; under setting [10], 94 % of control; under setting [13], 89 % of control; under setting [14], 100 % of control; under setting [15], 94 % of control; under setting [11], 90 % of control.

For `Cc1ccc(C(=O)N(N)C2CCCCC2)cc1`, the T/C by setting is: under setting [3], 95 % of control; under setting [6], 93 % of control; under setting [9], 96 % of control.

Regarding `O=C(Nc1cccc(S(=O)(=O)F)c1)Oc1ccc([N+](=O)[O-])cc1`, the T/C by setting is: under setting [1], 100 % of control; under setting [2], 95 % of control and 100 % of control; (dose: 100.0 mg/kg/injection, schedule: Q04DX002 (ip), vehicle: saline with Tween-80) 91 % of control; under setting [3], 95 % of control; under setting [4], 100 % of control; under setting [5], 98 % of control and 102 % of control. Further, the T/C is 91 % of control (dose: 200.0 mg/kg/injection, schedule: Q04DX002 (ip), vehicle: saline with Tween-80); 100 % of control under setting [6]; 98 % of control under setting [7]; 88 % of control under setting [8]; 90 % of control (dose: 400.0 mg/kg/injection, schedule: Q04DX002 (ip), vehicle: saline with Tween-80).

As for `O=C1C=C/C(=N/c2ccc(O)o2)c2ccccc21`, the T/C (dose: 150.0 mg/kg/injection, schedule: Q01DX001 (ip), vehicle: saline) is 100 % of control.

Turning to `NNC(=O)c1cccc([N+](=O)[O-])c1`, the T/C by setting is: (dose: 12.5 mg/kg/injection, schedule: Q04DX003 (ip), vehicle: Klucel (hydroxypropylcellulose) (HPC)) 100 % of control; (dose: 25.0 mg/kg/injection, schedule: Q04DX003 (ip), vehicle: Klucel (hydroxypropylcellulose) (HPC)) 96 % of control.

As to `O=C1c2ccccc2-c2ccc(NC(=O)C(F)(F)F)cc21`, the T/C under setting [1] is 92 % of control, the T/C under setting [4] is 90 % of control and the T/C under setting [7] was 92 % of control.

Consider `O=[N+]([O-])c1ccc2c(c1)/C(=N\O)c1cc(Cl)ccc1-2`, for which the T/C is, setting by setting: under setting [16], 97 % of control; under setting [17], 97 % of control; under setting [18], 94 % of control.

In the case of `NC(=Nc1ccccc1)Nc1ccccc1`, the T/C is, setting by setting: (dose: 6.25 mg/kg/injection, schedule: Q01DX009 (ip), vehicle: Klucel (hydroxypropylcellulose) (HPC)) 101 % of control; (dose: 12.5 mg/kg/injection, schedule: Q01DX009 (ip), vehicle: Klucel (hydroxypropylcellulose) (HPC)) 101 % of control; (dose: 12.5 mg/kg/injection, schedule: Q01DX009 (ip), vehicle: saline with Tween-80) 97 % of control; (dose: 25.0 mg/kg/injection, schedule: Q01DX009 (ip), vehicle: Klucel (hydroxypropylcellulose) (HPC)) 89 % of control; (dose: 25.0 mg/kg/injection, schedule: Q01DX009 (ip), vehicle: saline with Tween-80) 102 % of control; (dose: 35.0 mg/kg/injection, schedule: Q01DX009 (ip), vehicle: saline) 101 % of control. The T/C (dose: 50.0 mg/kg/injection, schedule: Q01DX009 (ip), vehicle: saline with Tween-80) was 97 % of control.

As for `Nc1nc(SCC(=O)c2ccccc2)c2[nH]cnc2n1`, the T/C (dose: 117.0 mg/kg/injection, schedule: Q01DX009 (ip), vehicle: saline with Tween-80) was 153 % of control; the T/C (dose: 176.0 mg/kg/injection, schedule: Q01DX009 (ip), vehicle: saline with Tween-80) is 151 % of control; the T/C under setting [5] is 104 % of control; the T/C (dose: 264.0 mg/kg/injection, schedule: Q01DX009 (ip), vehicle: saline with Tween-80) was 156 % of control; the T/C under setting [8] is 152 % of control.

Regarding `O=C(/C(=C\c1ccccc1)N1CCOCC1)c1ccc(Cl)cc1`, under setting [3], the T/C is 92 % of control.

For the compound `CC(C)C(=O)Nc1cccnc1`, the T/C is, setting by setting: (dose: 10.0 mg/kg/injection, schedule: Q01DX001 (ip), vehicle: saline) 100 % of control; (dose: 20.0 mg/kg/injection, schedule: Q01DX001 (ip), vehicle: saline) 103 % of control; (dose: 40.0 mg/kg/injection, schedule: Q01DX001 (ip), vehicle: saline) 94 % of control.

With `CCOC(=O)CCCCC(N)=O`, the T/C (dose: 100.0 mg/kg/injection, schedule: Q01DX001 (ip), vehicle: saline) is 104 % of control; the T/C (dose: 200.0 mg/kg/injection, schedule: Q01DX001 (ip), vehicle: saline) is 102 % of control; the T/C (dose: 400.0 mg/kg/injection, schedule: Q01DX001 (ip), vehicle: saline) is 101 % of control.

As for `COc1cccc2c1CCc1cc3c(nc1-2)-c1cccc(OC)c1CC3`, the T/C is, setting by setting: under setting [10], 103 % of control; under setting [14], 100 % of control; under setting [11], 101 % of control.

As to `CC(=O)Nc1cc2c(cc1[N+](=O)[O-])-c1ccccc1/C2=N\O`, the T/C is 106 % of control under setting [16], 94 % of control under setting [17] and 111 % of control under setting [18].

With `CCn1ccc(=O)c2cc([N+](=O)[O-])ccc21`, the T/C is, setting by setting: under setting [12], 95 % of control; under setting [10], 92 % of control; under setting [13], 103 % of control; under setting [14], 92 % of control; under setting [15], 92 % of control; under setting [11], 91 % of control.

With `CNNC(=O)NC`, the T/C was 109 % of control (dose: 50.0 mg/kg/injection, schedule: Q01DX009 (ip), vehicle: saline) and 94 % of control (dose: 100.0 mg/kg/injection, schedule: Q01DX009 (ip), vehicle: saline).

Regarding `CC1(C)C(=O)C=C(N2CCCCC2)c2ccccc21`, the T/C was 101 % of control under setting [3], 98 % of control under setting [6] and 97 % of control under setting [9].
